Reference: the supplement of paper PMC10307832

Key:
Test in all cases: relative viability (nuclei count vs DMSO), 5 days (fraction); higher = more cells survive
201T = system: 201T
How it was run: (§1)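 Medians of duplicate plates are given as relative viability. That measure is the nuclei count in treated wells divided by the count in vehicle wells. Counts were taken on 4× images of lung cancer cell lines in 1536-well plates, 5 days after pin-tool dosing the day after seeding with one drug alone or a fixed anchor-drug dose plus five library-drug doses (not always all listed) in √10 steps.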

NCI-H2023 = system: NCI-H2023
How it was run: as §1

NCI-H441 = system: NCI-H441
How it was run: as §1

NCI-H3122 = system: NCI-H3122
How it was run: as §1

NCI-H1563 = system: NCI-H1563
How it was run: as §1

NCI-H1793 = system: NCI-H1793
How it was run: as §1

NCI-H322M = system: NCI-H322M
How it was run: as §1

LOU-NH91 = system: LOU-NH91
How it was run: as §1

NCI-H1734 = system: NCI-H1734
How it was run: as §1

UMC-11 = system: UMC-11
How it was run: as §1

COR-L23 = system: COR-L23
How it was run: as §1

NCI-H520 = system: NCI-H520
How it was run: as §1

NCI-H2347 = system: NCI-H2347
How it was run: as §1

H3255 = system: H3255
How it was run: as §1

NCI-H2405 = system: NCI-H2405
How it was run: as §1

NCI-H647 = system: NCI-H647
How it was run: as §1

NCI-H2170 = system: NCI-H2170
How it was run: as §1

PC-14 = system: PC-14
How it was run: as §1

EPLC-272H = system: EPLC-272H
How it was run: as §1

HCC-15 = system: HCC-15
How it was run: as §1

COc1cc2nccc(Oc3ccc(NC(=O)Nc4cc(C)on4)c(Cl)c3)c2cc1OC [Tivozanib] + Cc1nc(NC(=O)N2CCC[C@H]2C(N)=O)sc1-c1ccnc(C(C)(C)C(F)(F)F)c1 [Alpelisib] (partner 2 µM)
relative viability (201T; first compound 0.005 µM): 0.993
relative viability (201T; first compound 0.01581 µM): 1
relative viability (201T; first compound 0.05 µM): 1.05
relative viability (201T; first compound 0.1581 µM): 1.02
relative viability (201T; first compound 0.5 µM): 1.08
relative viability (NCI-H2023; first compound 0.005 µM): 0.553
relative viability (NCI-H2023; first compound 0.01581 µM): 0.578
relative viability (NCI-H2023; first compound 0.05 µM): 0.634
relative viability (NCI-H2023; first compound 0.1581 µM): 0.589
relative viability (NCI-H2023; first compound 0.5 µM): 0.61
relative viability (NCI-H441; first compound 0.005 µM): 0.711
relative viability (NCI-H441; first compound 0.01581 µM): 0.452
relative viability (NCI-H441; first compound 0.05 µM): 0.57
relative viability (NCI-H441; first compound 0.1581 µM): 0.632
relative viability (NCI-H441; first compound 0.5 µM): 0.56
relative viability (NCI-H3122; first compound 0.005 µM): 0.668
relative viability (NCI-H3122; first compound 0.01581 µM): 0.792
relative viability (NCI-H3122; first compound 0.05 µM): 0.798
relative viability (NCI-H3122; first compound 0.1581 µM): 0.973
relative viability (NCI-H3122; first compound 0.5 µM): 0.983
relative viability (NCI-H1563; first compound 0.005 µM): 0.926
relative viability (NCI-H1563; first compound 0.01581 µM): 0.976
relative viability (NCI-H1563; first compound 0.05 µM): 0.972
relative viability (NCI-H1563; first compound 0.1581 µM): 0.843
relative viability (NCI-H1563; first compound 0.5 µM): 0.835
relative viability (NCI-H1793; first compound 0.005 µM): 0.643
relative viability (NCI-H1793; first compound 0.01581 µM): 0.617
relative viability (NCI-H1793; first compound 0.05 µM): 0.729
relative viability (NCI-H1793; first compound 0.5 µM): 0.705
relative viability (NCI-H322M; first compound 0.005 µM): 0.743
relative viability (NCI-H322M; first compound 0.01581 µM): 0.764
relative viability (NCI-H322M; first compound 0.05 µM): 0.767
relative viability (NCI-H322M; first compound 0.1581 µM): 0.756
relative viability (NCI-H322M; first compound 0.5 µM): 0.84
relative viability (LOU-NH91; first compound 0.005 µM): 0.69
relative viability (LOU-NH91; first compound 0.01581 µM): 0.698
relative viability (LOU-NH91; first compound 0.05 µM): 0.778
relative viability (LOU-NH91; first compound 0.1581 µM): 0.732
relative viability (LOU-NH91; first compound 0.5 µM): 0.752
relative viability (NCI-H1734; first compound 0.005 µM): 0.656
relative viability (NCI-H1734; first compound 0.01581 µM): 0.66
relative viability (NCI-H1734; first compound 0.05 µM): 0.702
relative viability (NCI-H1734; first compound 0.1581 µM): 0.536
relative viability (NCI-H1734; first compound 0.5 µM): 0.727
relative viability (UMC-11; first compound 0.005 µM): 1.11
relative viability (UMC-11; first compound 0.01581 µM): 0.846
relative viability (UMC-11; first compound 0.05 µM): 0.964
relative viability (UMC-11; first compound 0.5 µM): 0.959
relative viability (COR-L23; first compound 0.005 µM): 0.687
relative viability (COR-L23; first compound 0.01581 µM): 0.778
relative viability (COR-L23; first compound 0.05 µM): 0.931
relative viability (COR-L23; first compound 0.1581 µM): 0.709
relative viability (COR-L23; first compound 0.5 µM): 0.582
relative viability (NCI-H520; first compound 0.005 µM): 0.773
relative viability (NCI-H520; first compound 0.01581 µM): 0.847
relative viability (NCI-H520; first compound 0.05 µM): 1.02
relative viability (NCI-H520; first compound 0.1581 µM): 0.74
relative viability (NCI-H520; first compound 0.5 µM): 0.714
relative viability (NCI-H2347; first compound 0.005 µM): 1.01
relative viability (NCI-H2347; first compound 0.01581 µM): 1.03
relative viability (NCI-H2347; first compound 0.05 µM): 1.03
relative viability (NCI-H2347; first compound 0.1581 µM): 1.1
relative viability (NCI-H2347; first compound 0.5 µM): 0.987
relative viability (H3255; first compound 0.005 µM): 0.727
relative viability (H3255; first compound 0.01581 µM): 0.716
relative viability (H3255; first compound 0.05 µM): 0.684
relative viability (H3255; first compound 0.1581 µM): 0.689
relative viability (H3255; first compound 0.5 µM): 0.615
relative viability (NCI-H2405; first compound 0.005 µM): 0.776
relative viability (NCI-H2405; first compound 0.01581 µM): 0.878
relative viability (NCI-H2405; first compound 0.05 µM): 0.823
relative viability (NCI-H2405; first compound 0.1581 µM): 0.737
relative viability (NCI-H2405; first compound 0.5 µM): 0.641
relative viability (NCI-H647; first compound 0.005 µM): 1.22
relative viability (NCI-H647; first compound 0.01581 µM): 1.17
relative viability (NCI-H647; first compound 0.05 µM): 1.1
relative viability (NCI-H647; first compound 0.1581 µM): 0.803
relative viability (NCI-H647; first compound 0.5 µM): 0.958
relative viability (NCI-H2170; first compound 0.005 µM): 0.885
relative viability (NCI-H2170; first compound 0.01581 µM): 0.952
relative viability (NCI-H2170; first compound 0.05 µM): 0.799
relative viability (NCI-H2170; first compound 0.5 µM): 0.867
relative viability (PC-14; first compound 0.005 µM): 0.89
relative viability (PC-14; first compound 0.01581 µM): 0.993
relative viability (PC-14; first compound 0.05 µM): 1.07
relative viability (PC-14; first compound 0.1581 µM): 0.911
relative viability (PC-14; first compound 0.5 µM): 0.873
relative viability (EPLC-272H; first compound 0.005 µM): 0.964
relative viability (EPLC-272H; first compound 0.01581 µM): 0.918
relative viability (EPLC-272H; first compound 0.05 µM): 1.05
relative viability (EPLC-272H; first compound 0.1581 µM): 0.723
relative viability (EPLC-272H; first compound 0.5 µM): 0.862
relative viability (HCC-15; first compound 0.005 µM): 0.917
relative viability (HCC-15; first compound 0.01581 µM): 0.839
relative viability (HCC-15; first compound 0.05 µM): 0.943
relative viability (HCC-15; first compound 0.1581 µM): 0.826
relative viability (HCC-15; first compound 0.5 µM): 0.81
